From the supplement of paper PMC10307832

How the values were obtained:
Test in all cases: relative viability (nuclei count vs DMSO), 5 days (fraction); higher = more cells survive
Veliparib + Pemetrexed = compound: C[C@]1(c2nc3c(C(N)=O)cccc3[nH]2)CCCN1 [Veliparib] + Nc1nc2[nH]cc(CCc3ccc(C(=O)N[C@@H](CCC(=O)O)C(=O)O)cc3)c2c(=O)[nH]1 [Pemetrexed] (partner 0.2 µM)
Method in brief: (§1)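 Relative viability is defined as nuclei in treated wells over nuclei in vehicle wells. Duplicate plates were run and medians reported. Lung cancer cell lines in 1536-well plates were dosed by pin tool one day after seeding, with one drug or with a fixed anchor-drug dose plus five library-drug doses (not always all listed) in √10 steps, and nuclei were counted after 5 days.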

Veliparib + Pictilisib = compound: C[C@]1(c2nc3c(C(N)=O)cccc3[nH]2)CCCN1 [Veliparib] + CS(=O)(=O)N1CCN(Cc2cc3nc(-c4cccc5[nH]ncc45)nc(N4CCOCC4)c3s2)CC1 [Pictilisib] (partner 1 µM)
Method in brief: as §1

[1] = compound: COC1=CC=C(C=C1)CN2C=CC3=C2C=C(C=C3)C(=O)NO + Cc1nc(NC(=O)N2CCC[C@H]2C(N)=O)sc1-c1ccnc(C(C)(C)C(F)(F)F)c1 [Alpelisib] (partner 2 µM)
Method in brief: as §1

[2] = compound: COC1=CC=C(C=C1)CN2C=CC3=C2C=C(C=C3)C(=O)NO + CC(=O)c1c(C)c2cnc(Nc3ccc(N4CCNCC4)cn3)nc2n(C2CCCC2)c1=O [Palbociclib] (partner 0.5 µM)
Method in brief: as §1

HCC-366
relative viability (Veliparib + Pemetrexed; first compound 0.02 µM): 0.178
relative viability (Veliparib + Pemetrexed; first compound 0.06325 µM): 0.204
relative viability (Veliparib + Pemetrexed; first compound 0.2 µM): 0.227
relative viability (Veliparib + Pemetrexed; first compound 0.6325 µM): 0.185
relative viability (Veliparib + Pemetrexed; first compound 2 µM): 0.207
relative viability (Veliparib + Pictilisib; first compound 0.02 µM): 0.114
relative viability (Veliparib + Pictilisib; first compound 0.06325 µM): 0.15
relative viability (Veliparib + Pictilisib; first compound 0.2 µM): 0.122
relative viability (Veliparib + Pictilisib; first compound 0.6325 µM): 0.152
relative viability (Veliparib + Pictilisib; first compound 2 µM): 0.15
relative viability ([1]; first compound 0.253 µM): 0.435
relative viability ([1]; first compound 0.8 µM): 0.384
relative viability ([1]; first compound 2.53 µM): 0.587
relative viability ([1]; first compound 8 µM): 0.406
relative viability ([2]; first compound 0.08 µM): 0.339
relative viability ([2]; first compound 0.253 µM): 0.372
relative viability ([2]; first compound 0.8 µM): 0.38
relative viability ([2]; first compound 2.53 µM): 0.367
relative viability ([2]; first compound 8 µM): 0.389

NCI-H1975
relative viability (Veliparib + Pemetrexed; first compound 0.02 µM): 0.292
relative viability (Veliparib + Pemetrexed; first compound 0.06325 µM): 0.332
relative viability (Veliparib + Pemetrexed; first compound 0.2 µM): 0.295
relative viability (Veliparib + Pemetrexed; first compound 0.6325 µM): 0.292
relative viability (Veliparib + Pemetrexed; first compound 2 µM): 0.311
relative viability (Veliparib + Pictilisib; first compound 0.02 µM): 0.292
relative viability (Veliparib + Pictilisib; first compound 0.06325 µM): 0.283
relative viability (Veliparib + Pictilisib; first compound 0.2 µM): 0.336
relative viability (Veliparib + Pictilisib; first compound 0.6325 µM): 0.282
relative viability (Veliparib + Pictilisib; first compound 2 µM): 0.287
relative viability ([1]; first compound 0.08 µM): 0.699
relative viability ([1]; first compound 0.253 µM): 0.711
relative viability ([1]; first compound 0.8 µM): 0.644
relative viability ([1]; first compound 2.53 µM): 0.592
relative viability ([1]; first compound 8 µM): 0.547
relative viability ([2]; first compound 0.08 µM): 0.347
relative viability ([2]; first compound 0.253 µM): 0.627
relative viability ([2]; first compound 0.8 µM): 0.604
relative viability ([2]; first compound 2.53 µM): 0.665
relative viability ([2]; first compound 8 µM): 0.537

NCI-H460
relative viability (Veliparib + Pemetrexed; first compound 0.02 µM): 0.0617
relative viability (Veliparib + Pemetrexed; first compound 0.06325 µM): 0.0618
relative viability (Veliparib + Pemetrexed; first compound 0.2 µM): 0.0599
relative viability (Veliparib + Pemetrexed; first compound 0.6325 µM): 0.0593
relative viability (Veliparib + Pemetrexed; first compound 2 µM): 0.0663
relative viability (Veliparib + Pictilisib; first compound 0.02 µM): 0.349
relative viability (Veliparib + Pictilisib; first compound 0.06325 µM): 0.335
relative viability (Veliparib + Pictilisib; first compound 0.2 µM): 0.325
relative viability (Veliparib + Pictilisib; first compound 0.6325 µM): 0.347
relative viability (Veliparib + Pictilisib; first compound 2 µM): 0.377
relative viability ([1]; first compound 0.08 µM): 0.36
relative viability ([1]; first compound 0.253 µM): 0.535
relative viability ([1]; first compound 0.8 µM): 0.506
relative viability ([1]; first compound 2.53 µM): 0.359
relative viability ([1]; first compound 8 µM): 0.338
relative viability ([2]; first compound 0.08 µM): 0.201
relative viability ([2]; first compound 0.253 µM): 0.173
relative viability ([2]; first compound 0.8 µM): 0.0964
relative viability ([2]; first compound 2.53 µM): 0.186
relative viability ([2]; first compound 8 µM): 0.108

NCI-H2170
relative viability (Veliparib + Pemetrexed; first compound 0.02 µM): 0.256
relative viability (Veliparib + Pemetrexed; first compound 0.06325 µM): 0.244
relative viability (Veliparib + Pemetrexed; first compound 0.2 µM): 0.253
relative viability (Veliparib + Pemetrexed; first compound 0.6325 µM): 0.237
relative viability (Veliparib + Pemetrexed; first compound 2 µM): 0.273
relative viability (Veliparib + Pictilisib; first compound 0.02 µM): 0.328
relative viability (Veliparib + Pictilisib; first compound 0.06325 µM): 0.345
relative viability (Veliparib + Pictilisib; first compound 0.2 µM): 0.314
relative viability (Veliparib + Pictilisib; first compound 0.6325 µM): 0.346
relative viability (Veliparib + Pictilisib; first compound 2 µM): 0.347
relative viability ([1]; first compound 0.08 µM): 0.714
relative viability ([1]; first compound 0.253 µM): 0.941
relative viability ([1]; first compound 0.8 µM): 0.837
relative viability ([1]; first compound 2.53 µM): 0.793
relative viability ([1]; first compound 8 µM): 0.838
relative viability ([2]; first compound 0.08 µM): 0.374
relative viability ([2]; first compound 0.253 µM): 0.374
relative viability ([2]; first compound 0.8 µM): 0.412
relative viability ([2]; first compound 2.53 µM): 0.361
relative viability ([2]; first compound 8 µM): 0.367

NCI-H1355
relative viability (Veliparib + Pemetrexed; first compound 0.02 µM): 0.874
relative viability (Veliparib + Pemetrexed; first compound 0.06325 µM): 0.998
relative viability (Veliparib + Pemetrexed; first compound 0.2 µM): 1.01
relative viability (Veliparib + Pemetrexed; first compound 0.6325 µM): 0.962
relative viability (Veliparib + Pemetrexed; first compound 2 µM): 1
relative viability (Veliparib + Pictilisib; first compound 0.06325 µM): 0.329
relative viability (Veliparib + Pictilisib; first compound 0.2 µM): 0.477
relative viability (Veliparib + Pictilisib; first compound 0.6325 µM): 0.406
relative viability (Veliparib + Pictilisib; first compound 2 µM): 0.472
relative viability ([1]; first compound 0.08 µM): 0.793
relative viability ([1]; first compound 0.253 µM): 0.892
relative viability ([1]; first compound 0.8 µM): 0.905
relative viability ([1]; first compound 2.53 µM): 0.883
relative viability ([1]; first compound 8 µM): 0.901
relative viability ([2]; first compound 0.08 µM): 0.382
relative viability ([2]; first compound 0.253 µM): 0.471
relative viability ([2]; first compound 0.8 µM): 0.425
relative viability ([2]; first compound 2.53 µM): 0.413
relative viability ([2]; first compound 8 µM): 0.411

NCI-H1755
relative viability (Veliparib + Pemetrexed; first compound 0.02 µM): 0.405
relative viability (Veliparib + Pemetrexed; first compound 0.06325 µM): 0.43
relative viability (Veliparib + Pemetrexed; first compound 0.2 µM): 0.397
relative viability (Veliparib + Pemetrexed; first compound 0.6325 µM): 0.392
relative viability (Veliparib + Pemetrexed; first compound 2 µM): 0.444
relative viability (Veliparib + Pictilisib; first compound 0.02 µM): 0.403
relative viability (Veliparib + Pictilisib; first compound 0.06325 µM): 0.415
relative viability (Veliparib + Pictilisib; first compound 0.2 µM): 0.479
relative viability (Veliparib + Pictilisib; first compound 0.6325 µM): 0.434
relative viability (Veliparib + Pictilisib; first compound 2 µM): 0.432
relative viability ([1]; first compound 0.08 µM): 0.819
relative viability ([1]; first compound 0.253 µM): 0.964
relative viability ([1]; first compound 0.8 µM): 0.913
relative viability ([1]; first compound 2.53 µM): 0.995
relative viability ([1]; first compound 8 µM): 0.928
relative viability ([2]; first compound 0.08 µM): 0.464
relative viability ([2]; first compound 0.253 µM): 0.48
relative viability ([2]; first compound 0.8 µM): 0.5
relative viability ([2]; first compound 2.53 µM): 0.448
relative viability ([2]; first compound 8 µM): 0.423

HCC-78
relative viability (Veliparib + Pemetrexed; first compound 0.02 µM): 0.909
relative viability (Veliparib + Pemetrexed; first compound 0.06325 µM): 0.925
relative viability (Veliparib + Pemetrexed; first compound 0.2 µM): 0.91
relative viability (Veliparib + Pemetrexed; first compound 0.6325 µM): 0.494
relative viability (Veliparib + Pemetrexed; first compound 2 µM): 0.853
relative viability (Veliparib + Pictilisib; first compound 0.02 µM): 0.226
relative viability (Veliparib + Pictilisib; first compound 0.06325 µM): 0.222
relative viability (Veliparib + Pictilisib; first compound 0.2 µM): 0.267
relative viability (Veliparib + Pictilisib; first compound 0.6325 µM): 0.236
relative viability (Veliparib + Pictilisib; first compound 2 µM): 0.231
relative viability ([1]; first compound 0.253 µM): 0.359
relative viability ([1]; first compound 0.8 µM): 0.395
relative viability ([1]; first compound 2.53 µM): 0.35
relative viability ([1]; first compound 8 µM): 0.305
relative viability ([2]; first compound 0.08 µM): 0.437
relative viability ([2]; first compound 0.253 µM): 0.473
relative viability ([2]; first compound 0.8 µM): 0.45
relative viability ([2]; first compound 2.53 µM): 0.496
relative viability ([2]; first compound 8 µM): 0.452

NCI-H2405
relative viability (Veliparib + Pemetrexed; first compound 0.02 µM): 1.08
relative viability (Veliparib + Pemetrexed; first compound 0.2 µM): 1.11
relative viability (Veliparib + Pemetrexed; first compound 0.6325 µM): 0.978
relative viability (Veliparib + Pemetrexed; first compound 2 µM): 1.04
relative viability (Veliparib + Pictilisib; first compound 0.06325 µM): 0.46
relative viability (Veliparib + Pictilisib; first compound 0.2 µM): 0.456
relative viability (Veliparib + Pictilisib; first compound 0.6325 µM): 0.468
relative viability (Veliparib + Pictilisib; first compound 2 µM): 0.308
relative viability ([1]; first compound 0.08 µM): 0.474
relative viability ([1]; first compound 0.253 µM): 0.784
relative viability ([1]; first compound 0.8 µM): 0.804
relative viability ([1]; first compound 2.53 µM): 0.797
relative viability ([1]; first compound 8 µM): 0.675
relative viability ([2]; first compound 0.08 µM): 0.476
relative viability ([2]; first compound 0.8 µM): 0.55
relative viability ([2]; first compound 2.53 µM): 0.513
relative viability ([2]; first compound 8 µM): 0.481
